Data published in PMC6458995, “MAP4K4 Inhibition Promotes Survival of Human Stem Cell-Derived Cardiomyocytes and Reduces Infarct Size In Vivo” (Cell Stem Cell, 2019).

Experiments:
Test in all cases: Dundee kinase panel
Format in all cases: biochemical
Details in all cases: for remaining activity at 1 µM: read-out: residual activity
[1] = molecular target: T1, CDK2-Cyclin A (Homo sapiens, UniProt P24941)
T1 construct: lines 1-140) and Reaction Biology
Experimental: (§1) Compounds were screened at 1 μM. For key hits, pIC50 values were then determined by HTRF as above. […] Stability in mouse and human liver microsomes was determined by Cyprotex.

[2] = molecular target: T2, TIE2 (Homo sapiens, UniProt Q02763)
T2 construct: lines 1-140) and Reaction Biology
T2 sequence (Q02763 23-1124): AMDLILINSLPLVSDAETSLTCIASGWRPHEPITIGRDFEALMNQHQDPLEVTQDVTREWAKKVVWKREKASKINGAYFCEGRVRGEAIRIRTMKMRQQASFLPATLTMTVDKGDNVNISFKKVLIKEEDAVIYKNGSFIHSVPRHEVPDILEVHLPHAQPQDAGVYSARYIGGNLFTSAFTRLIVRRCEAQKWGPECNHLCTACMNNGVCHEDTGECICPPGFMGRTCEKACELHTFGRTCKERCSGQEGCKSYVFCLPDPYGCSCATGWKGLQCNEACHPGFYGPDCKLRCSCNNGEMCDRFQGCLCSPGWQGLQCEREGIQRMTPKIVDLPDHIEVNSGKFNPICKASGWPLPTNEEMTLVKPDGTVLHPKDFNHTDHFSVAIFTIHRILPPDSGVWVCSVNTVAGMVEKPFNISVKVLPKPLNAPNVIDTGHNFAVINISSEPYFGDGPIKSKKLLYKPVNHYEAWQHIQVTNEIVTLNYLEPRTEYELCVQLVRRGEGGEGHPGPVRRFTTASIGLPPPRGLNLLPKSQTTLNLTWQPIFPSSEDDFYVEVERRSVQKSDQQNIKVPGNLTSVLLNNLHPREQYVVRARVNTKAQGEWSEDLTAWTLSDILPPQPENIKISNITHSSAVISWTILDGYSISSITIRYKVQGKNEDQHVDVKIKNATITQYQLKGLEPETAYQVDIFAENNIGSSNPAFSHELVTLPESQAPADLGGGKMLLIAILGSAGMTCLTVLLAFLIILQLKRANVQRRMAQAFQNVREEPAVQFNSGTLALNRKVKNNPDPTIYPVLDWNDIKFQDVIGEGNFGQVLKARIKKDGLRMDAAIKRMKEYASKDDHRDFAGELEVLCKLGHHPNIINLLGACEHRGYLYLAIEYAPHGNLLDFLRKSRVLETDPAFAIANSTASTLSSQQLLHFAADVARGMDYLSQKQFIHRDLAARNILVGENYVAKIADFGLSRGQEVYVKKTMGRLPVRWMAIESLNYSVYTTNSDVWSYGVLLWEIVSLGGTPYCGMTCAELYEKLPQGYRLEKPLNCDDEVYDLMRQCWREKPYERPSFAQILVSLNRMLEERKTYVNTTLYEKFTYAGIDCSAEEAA
Experimental: as §1

[3] = molecular target: T3, ZAP70 (Homo sapiens, UniProt P43403)
T3 construct: lines 1-140) and Reaction Biology
T3 sequence (P43403 1-619): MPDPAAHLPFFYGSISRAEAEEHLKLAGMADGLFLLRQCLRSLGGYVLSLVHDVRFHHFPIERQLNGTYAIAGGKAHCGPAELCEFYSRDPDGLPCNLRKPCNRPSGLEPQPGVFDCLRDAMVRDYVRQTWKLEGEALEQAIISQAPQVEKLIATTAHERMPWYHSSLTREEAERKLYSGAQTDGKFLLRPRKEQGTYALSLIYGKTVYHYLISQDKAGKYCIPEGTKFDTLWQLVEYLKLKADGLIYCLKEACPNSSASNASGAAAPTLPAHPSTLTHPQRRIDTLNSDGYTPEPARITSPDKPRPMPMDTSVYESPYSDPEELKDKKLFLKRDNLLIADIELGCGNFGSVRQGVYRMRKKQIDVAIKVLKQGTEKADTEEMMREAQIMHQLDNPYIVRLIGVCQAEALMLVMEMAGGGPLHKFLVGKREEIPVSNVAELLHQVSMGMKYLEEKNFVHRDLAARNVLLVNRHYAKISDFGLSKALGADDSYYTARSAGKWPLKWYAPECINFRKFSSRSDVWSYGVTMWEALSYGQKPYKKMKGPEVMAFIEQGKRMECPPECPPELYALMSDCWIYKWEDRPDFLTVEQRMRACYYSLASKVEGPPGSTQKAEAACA
Experimental: as §1

[4] = molecular target: T4, PAK6 (Homo sapiens, UniProt Q9NQU5)
T4 construct: lines 1-140) and Reaction Biology
Experimental: as §1

[5] = molecular target: T5, NEK6 (Homo sapiens, UniProt Q9HC98)
T5 construct: lines 1-140) and Reaction Biology
T5 sequence (Q9HC98 whole entry): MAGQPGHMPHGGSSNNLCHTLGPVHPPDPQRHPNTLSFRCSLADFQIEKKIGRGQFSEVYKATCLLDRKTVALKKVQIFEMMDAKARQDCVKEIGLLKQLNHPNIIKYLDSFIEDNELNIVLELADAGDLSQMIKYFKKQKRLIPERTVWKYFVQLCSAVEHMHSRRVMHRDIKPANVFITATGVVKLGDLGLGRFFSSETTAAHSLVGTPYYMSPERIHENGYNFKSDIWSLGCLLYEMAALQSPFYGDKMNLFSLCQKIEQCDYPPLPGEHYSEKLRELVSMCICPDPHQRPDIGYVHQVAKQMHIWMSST
Experimental: as §1

[6] = molecular target: T6, MELK (Homo sapiens, UniProt Q14680)
T6 construct: lines 1-140) and Reaction Biology
Experimental: as §1

[7] = molecular target: T7, BTK (Homo sapiens, UniProt Q06187)
T7 construct: lines 1-140) and Reaction Biology
T7 sequence (Q06187 whole entry): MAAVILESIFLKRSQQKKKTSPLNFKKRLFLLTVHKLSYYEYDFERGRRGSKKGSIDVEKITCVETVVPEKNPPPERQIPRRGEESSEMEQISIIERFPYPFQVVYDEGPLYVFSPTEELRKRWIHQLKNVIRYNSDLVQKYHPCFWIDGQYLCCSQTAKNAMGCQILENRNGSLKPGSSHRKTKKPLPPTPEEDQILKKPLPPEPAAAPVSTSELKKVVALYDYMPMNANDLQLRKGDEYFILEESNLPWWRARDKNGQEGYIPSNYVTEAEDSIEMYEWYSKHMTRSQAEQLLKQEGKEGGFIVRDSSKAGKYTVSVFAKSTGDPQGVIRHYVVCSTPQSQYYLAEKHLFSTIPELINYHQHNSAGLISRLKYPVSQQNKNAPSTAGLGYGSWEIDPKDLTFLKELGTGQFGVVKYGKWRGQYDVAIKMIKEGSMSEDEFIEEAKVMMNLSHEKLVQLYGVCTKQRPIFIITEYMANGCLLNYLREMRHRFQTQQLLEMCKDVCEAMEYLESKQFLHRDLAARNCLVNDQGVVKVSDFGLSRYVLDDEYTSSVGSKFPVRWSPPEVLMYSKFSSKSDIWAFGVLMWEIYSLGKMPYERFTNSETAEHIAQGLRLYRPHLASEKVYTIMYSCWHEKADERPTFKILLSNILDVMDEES
Experimental: as §1

[8] = molecular target: T8, JNK2 (Homo sapiens, UniProt P45984)
T8 construct: lines 1-140) and Reaction Biology
Experimental: as §1

[9] = molecular target: T9, PIM2 (Homo sapiens, UniProt Q9P1W9)
T9 construct: lines 1-140) and Reaction Biology
Experimental: as §1

[10] = molecular target: T10, PDGFRA (Homo sapiens, UniProt P16234)
T10 construct: lines 1-140) and Reaction Biology
T10 sequence (P16234 24-1089): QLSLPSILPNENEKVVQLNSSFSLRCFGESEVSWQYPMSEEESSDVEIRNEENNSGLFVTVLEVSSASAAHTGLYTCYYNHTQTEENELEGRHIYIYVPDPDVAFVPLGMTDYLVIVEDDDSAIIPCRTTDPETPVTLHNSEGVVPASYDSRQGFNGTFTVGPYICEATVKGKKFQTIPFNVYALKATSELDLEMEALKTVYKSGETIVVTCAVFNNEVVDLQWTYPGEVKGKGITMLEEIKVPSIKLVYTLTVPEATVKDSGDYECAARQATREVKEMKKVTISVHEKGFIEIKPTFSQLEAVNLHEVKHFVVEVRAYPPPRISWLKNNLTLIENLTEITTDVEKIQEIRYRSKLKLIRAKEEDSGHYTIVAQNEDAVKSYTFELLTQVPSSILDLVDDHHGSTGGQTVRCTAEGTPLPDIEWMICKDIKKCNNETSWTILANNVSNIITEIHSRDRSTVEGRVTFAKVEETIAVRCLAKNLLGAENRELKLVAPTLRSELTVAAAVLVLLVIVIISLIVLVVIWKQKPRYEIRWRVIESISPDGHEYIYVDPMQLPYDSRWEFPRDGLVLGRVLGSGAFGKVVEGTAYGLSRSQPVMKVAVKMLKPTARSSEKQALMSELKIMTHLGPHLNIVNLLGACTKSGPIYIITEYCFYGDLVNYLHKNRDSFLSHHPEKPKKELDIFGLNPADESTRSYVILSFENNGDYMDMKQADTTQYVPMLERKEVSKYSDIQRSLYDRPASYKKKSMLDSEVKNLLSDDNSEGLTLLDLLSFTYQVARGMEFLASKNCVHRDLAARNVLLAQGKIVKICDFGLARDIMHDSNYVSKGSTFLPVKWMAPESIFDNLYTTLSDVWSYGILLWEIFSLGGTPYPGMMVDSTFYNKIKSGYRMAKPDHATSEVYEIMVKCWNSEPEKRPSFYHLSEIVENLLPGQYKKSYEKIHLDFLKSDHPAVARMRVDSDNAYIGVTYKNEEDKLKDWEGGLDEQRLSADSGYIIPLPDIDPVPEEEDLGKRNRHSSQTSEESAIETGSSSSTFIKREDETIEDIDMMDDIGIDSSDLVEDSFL
Experimental: as §1

[11] = molecular target: T11, PIM1 (Homo sapiens, UniProt P11309)
T11 construct: lines 1-140) and Reaction Biology
T11 sequence (P11309 whole entry): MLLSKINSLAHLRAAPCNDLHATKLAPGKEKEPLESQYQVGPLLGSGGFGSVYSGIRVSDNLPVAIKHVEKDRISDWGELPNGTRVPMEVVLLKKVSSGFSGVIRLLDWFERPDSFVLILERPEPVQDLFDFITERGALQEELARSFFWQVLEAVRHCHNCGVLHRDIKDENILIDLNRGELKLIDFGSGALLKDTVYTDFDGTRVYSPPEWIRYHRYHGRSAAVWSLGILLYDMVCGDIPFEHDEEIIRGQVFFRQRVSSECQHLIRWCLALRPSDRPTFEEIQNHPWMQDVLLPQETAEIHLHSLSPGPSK
Experimental: as §1

[12] = molecular target: T12, PIM3 (Homo sapiens, UniProt Q86V86)
T12 construct: lines 1-140) and Reaction Biology
Experimental: as §1

[13] = molecular target: T13, TTK (Homo sapiens, UniProt P33981)
T13 construct: lines 1-140) and Reaction Biology
T13 sequence (P33981 1-857): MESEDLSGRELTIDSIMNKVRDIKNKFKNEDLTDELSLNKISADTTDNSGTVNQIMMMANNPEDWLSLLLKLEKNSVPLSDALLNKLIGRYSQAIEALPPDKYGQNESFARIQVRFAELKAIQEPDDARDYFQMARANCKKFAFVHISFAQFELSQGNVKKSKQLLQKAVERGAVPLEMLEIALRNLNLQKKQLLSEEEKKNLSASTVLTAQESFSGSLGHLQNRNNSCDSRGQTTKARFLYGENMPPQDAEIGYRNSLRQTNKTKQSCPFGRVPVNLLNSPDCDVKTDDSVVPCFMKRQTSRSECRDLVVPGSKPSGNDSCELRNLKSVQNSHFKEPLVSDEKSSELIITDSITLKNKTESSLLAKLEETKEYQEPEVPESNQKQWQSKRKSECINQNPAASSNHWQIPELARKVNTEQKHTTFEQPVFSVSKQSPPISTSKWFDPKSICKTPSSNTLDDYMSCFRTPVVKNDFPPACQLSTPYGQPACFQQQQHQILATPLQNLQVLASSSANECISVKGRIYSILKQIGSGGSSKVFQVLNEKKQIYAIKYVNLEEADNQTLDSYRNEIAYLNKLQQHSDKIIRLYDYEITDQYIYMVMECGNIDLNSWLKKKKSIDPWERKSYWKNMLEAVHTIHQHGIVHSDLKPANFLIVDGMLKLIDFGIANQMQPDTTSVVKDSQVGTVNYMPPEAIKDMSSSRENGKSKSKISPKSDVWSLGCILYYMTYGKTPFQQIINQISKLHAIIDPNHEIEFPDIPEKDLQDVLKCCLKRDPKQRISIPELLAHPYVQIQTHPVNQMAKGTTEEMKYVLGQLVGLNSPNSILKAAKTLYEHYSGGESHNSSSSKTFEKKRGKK
Experimental: as §1

[14] = molecular target: T14, IGF-1R (Homo sapiens, UniProt P08069)
T14 construct: lines 1-140) and Reaction Biology
T14 sequence (P08069 31-1367): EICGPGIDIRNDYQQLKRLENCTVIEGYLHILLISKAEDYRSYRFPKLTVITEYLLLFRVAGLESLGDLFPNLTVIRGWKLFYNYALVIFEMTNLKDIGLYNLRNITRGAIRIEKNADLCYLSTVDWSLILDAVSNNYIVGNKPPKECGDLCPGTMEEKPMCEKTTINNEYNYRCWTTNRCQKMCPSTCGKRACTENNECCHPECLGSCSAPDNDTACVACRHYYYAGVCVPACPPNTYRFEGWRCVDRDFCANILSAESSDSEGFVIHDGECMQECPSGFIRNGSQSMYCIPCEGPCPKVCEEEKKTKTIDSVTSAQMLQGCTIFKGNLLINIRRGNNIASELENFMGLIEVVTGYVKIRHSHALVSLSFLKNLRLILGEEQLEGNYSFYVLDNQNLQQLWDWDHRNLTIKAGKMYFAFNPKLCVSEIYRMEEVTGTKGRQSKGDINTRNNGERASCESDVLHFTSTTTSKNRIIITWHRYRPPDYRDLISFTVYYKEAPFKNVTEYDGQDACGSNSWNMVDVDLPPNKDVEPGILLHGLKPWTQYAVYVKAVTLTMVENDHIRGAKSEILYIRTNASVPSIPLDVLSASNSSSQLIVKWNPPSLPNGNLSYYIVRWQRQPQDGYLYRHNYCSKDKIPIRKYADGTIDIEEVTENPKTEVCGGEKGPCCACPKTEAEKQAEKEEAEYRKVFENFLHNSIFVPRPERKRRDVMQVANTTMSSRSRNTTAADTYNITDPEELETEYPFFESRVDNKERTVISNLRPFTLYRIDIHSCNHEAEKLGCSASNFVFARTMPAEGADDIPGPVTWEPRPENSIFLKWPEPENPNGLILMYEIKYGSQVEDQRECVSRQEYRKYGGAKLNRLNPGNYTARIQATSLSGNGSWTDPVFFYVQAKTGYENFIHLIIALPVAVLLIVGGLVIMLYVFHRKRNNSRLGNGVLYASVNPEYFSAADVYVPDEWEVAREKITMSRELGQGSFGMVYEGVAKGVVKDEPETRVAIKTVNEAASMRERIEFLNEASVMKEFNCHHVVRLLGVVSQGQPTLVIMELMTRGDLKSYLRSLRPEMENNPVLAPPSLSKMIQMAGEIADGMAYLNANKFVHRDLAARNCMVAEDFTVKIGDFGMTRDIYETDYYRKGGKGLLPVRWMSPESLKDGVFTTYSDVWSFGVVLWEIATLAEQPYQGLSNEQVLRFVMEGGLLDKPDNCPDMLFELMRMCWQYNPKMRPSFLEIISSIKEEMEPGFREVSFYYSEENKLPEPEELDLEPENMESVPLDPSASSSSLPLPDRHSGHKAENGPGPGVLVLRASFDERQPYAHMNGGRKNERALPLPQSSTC
Experimental: as §1

| SMILES | remaining activity at 1 µM [1] [%] | remaining activity at 1 µM [2] [%] | remaining activity at 1 µM [3] [%] | remaining activity at 1 µM [4] [%] | remaining activity at 1 µM [5] [%] | remaining activity at 1 µM [6] [%] | remaining activity at 1 µM [7] [%] | remaining activity at 1 µM [8] [%] | remaining activity at 1 µM [9] [%] | remaining activity at 1 µM [10] [%] | remaining activity at 1 µM [11] [%] | remaining activity at 1 µM [12] [%] | remaining activity at 1 µM [13] [%] | remaining activity at 1 µM [14] [%] | other results |
| --- | --- | --- | --- | --- | --- | --- | --- | --- | --- | --- | --- | --- | --- | --- | --- |
| COCCOc1ccc(-c2cn(-c3ccccc3)c3nc[nH]c(=O)c23)cc1 [DMX-5804, 5-[4-(2-methoxy-ethoxy)-phenyl]-7-phenyl-3,7-dihydro-pyrrolo[2,3-d]pyrimidin-4-one] | 104 | 101 | 94 | 118 | 101 | 83 | 118 | 103 | 105 | 88 | 98 | 88 | 105 | 112 |  |
| Oc1ncnc2c1c(-c1ccccc1)cn2-c1ccccc1 [F1386-0303, 5,7-diphenyl-7H-pyrrolo[2,3-d]pyrimidin-4-ol] | 84 | 114 | 114 | 105 | 128 | 90 | 130 | 94 | 84 | 93 | 122 | 74 | 97 | 108 |  |
| Nc1ncc(C(=O)NC2CN(C(=O)C3CC3)C2)c2ccc(-c3cccc(F)c3)nc12 [GNE-495] |  |  |  |  |  |  |  |  |  |  |  |  |  |  | residual activity ([1]; 1 μM): 55%; residual activity ([2]; 1 μM): 86%; residual activity ([3]; 1 μM): 109%; residual activity ([4]; 1 μM): 64%; residual activity ([5]; 1 μM): 111%; residual activity ([6]; 1 μM): 82%; residual activity ([7]; 1 μM): 82%; residual activity ([8]; 1 μM): 100%; residual activity ([9]; 1 μM): 95%; residual activity ([10]; 1 μM): 97%; residual activity ([11]; 1 μM): 103%; residual activity ([12]; 1 μM): 87%; residual activity ([13]; 1 μM): 87%; residual activity ([14]; 1 μM): 85% |
| O=C1Nc2ccc(I)cc2/C1=C/c1cc(Br)c(O)c(Br)c1 [GW5074] | 111 | 98 | 98 | 95 | 82 | 48 | 75 | 80 | 10 | 24 | 76 | 6 | 88 | 88 |  |
| O=C1Cc2c([nH]c3ccc(Br)cc23)-c2ccccc2N1 [Kenpaullone] | 93 | 98 | 59 | 32 | 99 | 38 | 64 | 94 | 67 | 48 | 90 | 103 | 97 | 74 |  |
